What is called MIC is the smallest concentration in the dilution series that meets the test's criterion for growth inhibition.

Here are results for 2 compounds from patent publication US3960837A, “Polyamine compounds and methods for their production” (Parke, Davis & Company, priority 1974, dated 1976).

Holding throughout (type): cell-based
The test system of one assay is Escherichia coli. Nature of the assay: in vitro antibacterial screening, minimal inhibitory concentration, Escherichia coli. The following applies: Escherichia coli (1 strain); Tryptic Soy broth; free base equivalent. The text has this:
(§1) Aminotrideoxybutirosin A and its acid-addition salts posses antibacterial activity. They show activity when tested by well-recognized in vitro antibacterial screening procedures. […] Where more than a single strain of test organism is indicated an average or approximate minimal inhibitory concentration is given.

In a further assay the test system is Staphylococcus aureus. Nature of the assay: in vitro antibacterial screening, minimal inhibitory concentration, Staphylococcus aureus (butirosin resistant strain). The note with it: Staphylococcus aureus (1 strain), Tryptic Soy broth, free base equivalent.
From the text: as §1
(§2) *Butirosin resistant strain

For the next assay, the system named is Pseudomonas aeruginosa. As to the kind of experiment: in vitro antibacterial screening, minimal inhibitory concentration, Pseudomonas aeruginosa. The following applies: Pseudomonas aeruginosa (6 strains), average or approximate; Tryptic Soy broth; free base equivalent.
From the text: as §1

The subject of assay [1] is Pseudomonas aeruginosa Aquilar. Nature of the assay: in vitro antibacterial screening, minimal inhibitory concentration, Pseudomonas aeruginosa Aquilar (butirosin resistant strain). The note with it: Pseudomonas aeruginosa Aquilar (1 strain), Tryptic Soy broth, free base equivalent.
From the text: as §1, §2

Another assay has as its system Enterobacter cloacae. As to the kind of experiment: in vitro antibacterial screening, minimal inhibitory concentration, Enterobacter cloacae. The note with it: Enterobacter cloacae (1 strain); Tryptic Soy broth; free base equivalent.
From the text: as §1

A further assay concerns Klebsiella pneumoniae. Nature of the assay: in vitro antibacterial screening, minimal inhibitory concentration, Klebsiella pneumoniae. The note with it: Klebsiella pneumoniae (1 strain); Tryptic Soy broth; free base equivalent.
From the text: as §1

The test system of the next assay is Serratia marcescens. As to the kind of experiment: in vitro antibacterial screening, minimal inhibitory concentration, Serratia marcescens. The following applies: Serratia marcescens (1 strain); Tryptic Soy broth; free base equivalent.
From the text: as §1

Turning to Butirosin, the “Minimal Inhibitory Concentration” value in the assay on Escherichia coli was more than 200 micrograms/ml; in the assay on Staphylococcus aureus, 50 micrograms/ml; with Pseudomonas aeruginosa it was 19.8 micrograms/ml; in assay [1], more than 200 micrograms/ml; with Enterobacter cloacae, 6.3 micrograms/ml; in the assay with Klebsiella pneumoniae it was 6.3 micrograms/ml. Further, the “Minimal Inhibitory Concentration” value with Serratia marcescens came to 25 micrograms/ml.

As for `NCC[C@H](O)C(=O)N[C@@H]1C[C@H](N)[C@@H](O[C@H]2O[C@H](CN)CC[C@H]2N)[C@H](O[C@@H]2O[C@H](CN)[C@H](O)[C@H]2O)[C@H]1O` [Aminotrideoxybutirosin A, O-2,6-Diamino-2,3,4,6-tetradeoxy-α-D-erythro-hexopyranosyl-(1→4)-O-[5-amino-5-deoxy-β-D-xylofuranosyl-(1→5)]-N^1-[(S)-4-amino-2-hydroxy-1-oxobutyl]-2-deoxystreptamine], the MIC in the assay with Escherichia coli came to 12.5 µg/mL; in the assay with Staphylococcus aureus, 3.1 µg/mL; in the assay with Pseudomonas aeruginosa, 3.6 µg/mL; in assay [1], 6.3 µg/mL; with Enterobacter cloacae it was 6.3 µg/mL; in the assay on Klebsiella pneumoniae, 6.3 µg/mL. Besides, in the assay on Serratia marcescens, the MIC was 12.5 µg/mL.
